We go through one molecule from patent US10933079B2, “Oligonucleotide analogues incorporating 5-aza-cytosine therein” (Astex Pharmaceuticals, Inc., priority 2005, dated 2021).

Data set [1] has as its system CMV-EE210 cell line containing the epigenetically silenced GFP transgene (CMV promoter). As to the kind of experiment: cell-based GFP assay for DNA methylation (reactivation of silenced GFP transgene). Here is the method:
The demethylating activity of DpG and GpD di-, tri-, and tetranucleotides were tested in a cell-based GFP (green fluorescent protein) assay. This assay, which is schematically illustrated in FIG. 25, has a GFP gene regulated by the CMV promoter and is sensitive to the methylation of CpG sites within the promoter. A decrease in methylation resulting from exposure to a methylation inhibitor leads to GFP expression and is readily scored. Specifically, the CMV-EE210 cell line containing the epigenetically silenced GFP transgene was used to assay for reactivation of GFP expression by flow cytometry. CMV-EE210 was made by transfecting NIH 3T3 cells with the pTR-UF/UF1/UF2 plasmid (Zolotuhin et al., 1996), which is comprised of pBS(+) (Stratagene, Inc.) containing a cytomegalovirus (CMV) promoter driving a humanized GFP gene adapted for expression in mammalian cells. After transfection, high-level GFP expressing cells were initially selected by FACS analysis and sorting using a MoFlo cytometer (Cytomation, Inc.). Decitabine, potent inhibitor of mammalian DNMT1, was used as a positive control. […] Wells were scored g1 positive if (10%) of viable cells express GFP, g2 positive if 30% of viable cells express GFP and g3 if >75% of the viable cells express GFP. […]

The conditions of data set [2]: cited from earlier work.

Turning to `Nc1ncn([C@H]2C[C@H](O)[C@@H](CO)O2)c(=O)n1` [Decitabine, 5-aza-2′-deoxycytidine], in data set [1] (CMV-EE210 cells, three days, decitabine at 1 μM, test compound at 30-50 μM, fluorescent microscope scoring), the “GFP Expression Level” value was “g3 (g3 if >75% of the viable cells express GFP)”. Besides, half-maximal inhibition in data set [1] (GFP 50: dose at which the GFP expression level goes from g3 to g1/2, preliminary screening) (IC50) required 0.5 µM. In addition, the total urinary excretion entry in data set [2] (humans) is on record as “less than 1 % of the administered dose”. The “penetration into the cerebrospinal fluid” value in data set [2] (man, end of a 36-hour intravenous infusion) is 14-21 % of the plasma concentration.

One may read the IC50 as the concentration that inhibits the measured activity by half.
